In patent US20240016784A1, “Y BOX BINDING PROTEIN 1 INHIBITORS” (Oregon Health & Science University, priority 2020, published 2024):

Columns and labels:
[1] = tested on: protein translation associated molecules; assay: Western blot of translation associated molecules in TNBC cells; format: cell-based; settings: 12 and 24 hr; MDA-MB-231, MDA-MB-468, SUM 159
Protocol: FIGS. 12A-12C. TNBC cells were treated for 12 and 24 hr and total cell lysate were prepared. SDS-PAGE and western blot analyses were performed for translation associated molecules. Beta-actin were probed to ensure equal protein loading.

[2] = Liver microsomes metabolic profiling; format: in vitro ADME
Excerpt: FIGS. 15A-15E. […] SU056 treatment at increasing concentrations dose not challenge the dietary behavior as reflected by change in body weight FIG. 15A) Mice and FIG. 15B) Rat. […] Liver microsomes were used for the purpose of metabolic profiling.

[3] = tested on: YB-1, TMSB10, SUMO2 and PMSB2 proteins; assay: Western blot of CETSA targets in OVCAR8 cells; format: cell-based, human; settings: 1, 2.5 and 5 μM for 12 h
Protocol: Out of six targets identified, we selected proteins whose thermal shift is above 5° in the presence of SU056 for further study of protein expression after treatment. […] To study the in vivo effects of SU056 treatment, we analyzed ID8 tumor xenograft samples via immunohistochemistry (IHC). […] To identify the broader effects of SU056 on YB-1 and its downstream protein/activity in different ovarian cancer cell lines, we selected six different cell lines and treated them with SU056 (2.5 μM) for 12 h. Cells were analyzed for YB-1 and CD44 expression and Multidrug resistance 1 (MDR1, ABC pump mediated efflux). […] OVCAR4, OVCAR8, and SKOV3 cells were treated with SU056 (1, 2.5, and 5 μM) for 3, 6, 12, and 24 h and YB-1 expression was measured using YB-1 ELISA. […]
Immunoblotting: Once 70% confluency of OC cells plated in 100 mm cell culture was obtained, dishes were treated with a respective concentration of SU056 for a respective time. […] Proteins were detected using Immobilon® Crescendo Western HRP Substrate (Millipore, Germany) and visualized on an IVIS Lumina Imaging System (Perkin Elmer, Waltham, MA).
FIGS. 4A-4E: SU056 inhibits YB-1. […] FIG. 4C) Respective OC cells were treated with 2.5 μM SU056 for 12 h and YB-1 & CD44 expression and multidrug resistance activity was measured as described in the ‘method’ section. […]

[4] = Liver toxicity parameters (ALT, AST, ALKP) in ID8 study; format: in vivo, C57BL/6 mice; settings: 20 mg/kg daily IP, 42 days
Protocol: These promising results led us to test SU093 and SU056 in vivo. C57BL/6 mice were implanted with 2×10^6 firefly luciferase (luc+)-expressing ID-8 syngeneic ovarian cancer cells subcutaneously. Once the tumors reached 100 mm^3 in size, we began daily intraperitoneal treatment with SU093 and SU056 at 20 mg/kg (vehicle control 30% PEG-300 in saline). Tumor growth was monitored via bioluminescence imaging (IVIS).
In vivo xenograft model and drug efficacy study: All animal experiments were reviewed and approved by the Animal Care and Use Committee of Stanford University, CA, USA. Luciferase tagged ID8 (2×10^6) or OVCAR8 (5×10^6) cells were implanted into the right flank of 6-7-week-old female C57BL/6 mice and NOD/SCID mice, respectively. Respective treatment began after tumors grew to 100-200 mm^3 diameters. The ID8 syngeneic mice model was treated with a vehicle (30% PEG-300 in saline), 20 mg/kg SU093, and 20 mg/kg SU056 intraperitoneally (IP) daily for 42 days. At the end of treatment, blood was collected from each mouse and analyzed for liver toxicity parameters, including Alanine Aminotransferase (ALT), Aspartate Aminotransferase (AST), and Alkaline Phosphatase (ALKP). […]

O=C1OCC2=C1C(c1cccc(F)c1)c1cc3c(cc1N2CCO)OCO3 (stereo not shown) [SU056, 9-(3-fluorophenyl)-5-(2-hydroxyethyl)-6,9-dihydro-[1,3]dioxolo[4,5-g]furo[3,4-b]quinolin-8(5H)-one]
protein translation associated molecules (western blot) [1]: inhibited the protein translation associated molecules | half-life [2]: 40 min | protein expression by Western blot [3]: inhibits the YB-1, TMSB10, SUMO2 and PMSB2 proteins in a dose-dependent manner | impact on blood chemistry indicators (AST, ALT, alkaline phosphatase) [4]: no significant impact
